# Results: US9963496B2, “Stable glucagon analogues and use for treatment of hypoglycaemia” (Novo Nordisk A/S, priority 2014, dated 2018)
# *1 amine or outer side, *2 acyl side, *3 side chain or, on linkers, in order; H or OH if unused. Where a SMILES comes first, the peptide text is derived from it. Side-chain parts run from the residue outwards. [ ]: non-standard residue; d: D form. The star is where a group is joined. γGlu = O=C(O)[C@H](CCC(=O)[*:2])N[*:1]; Desaminohistidyl = O=C(CCc1c[nH]cn1)*; Aib = CC(C)(N)C(=O)O
# Experiments:
# human glucagon receptor = target: T1, human glucagon receptor (Homo sapiens, UniProt P47871); assay: Assay (I)(b): glucagon receptor activation, CRE luciferase reporter gene assay in BHK cells; format: cell-based; details: BHK cells expressing human glucagon receptor and CRE luciferase, 3 h incubation; read-out: EC50 hGlucagonR
# T1 construct: expressed in transfected cells; host or cells: BHK cells, clone BHK hGCGR A3*25; isolated membranes
# T1 sequence (P47871 26-477): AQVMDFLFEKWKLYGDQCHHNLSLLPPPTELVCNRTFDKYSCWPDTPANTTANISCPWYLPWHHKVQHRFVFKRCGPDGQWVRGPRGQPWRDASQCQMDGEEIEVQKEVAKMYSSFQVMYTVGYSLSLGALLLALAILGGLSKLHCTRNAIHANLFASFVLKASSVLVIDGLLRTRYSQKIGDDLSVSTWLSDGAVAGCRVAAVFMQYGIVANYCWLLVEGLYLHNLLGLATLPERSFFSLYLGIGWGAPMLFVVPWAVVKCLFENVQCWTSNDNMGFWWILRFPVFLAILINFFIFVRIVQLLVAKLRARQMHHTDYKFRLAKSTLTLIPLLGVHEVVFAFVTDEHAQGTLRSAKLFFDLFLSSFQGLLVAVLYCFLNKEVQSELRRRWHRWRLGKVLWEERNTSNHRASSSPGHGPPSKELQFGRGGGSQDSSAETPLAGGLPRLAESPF
# Description: The purpose of this assay is to test the activity, or potency, of the derivatives of the invention, in vitro. The in vitro potency is the measure of human GLP-1 receptor and/or glucagon receptor activation, respectively, in a whole cell assay.
# In vitro potency was determined by measuring the response of human GLP-1 or glucagon receptor, respectively, in a reporter gene assay. The assay was performed in a stably transfected BHK cell line that expressed either the human GLP-1 receptor or the human glucagon receptor and contained the DNA for the cAMP response element (CRE) coupled to a promoter and the gene for firefly luciferase (CRE luciferase). […] When assay incubation was completed, the luciferase substrate (luciferin) was added and the enzyme converted luciferin to oxyluciferin and produced bioluminescence. The luminescence was measured as the readout for the assay.
# (b) Glucagon Receptor Activation
# The cells used in this assay (clone pLJ6′-4-25) were BHK cells with BHK570 as a parent cell line expressing the CRE luciferase gene (clone BHK/KZ10-20-48) and were established by further transfection with the human glucagon receptor (clone pLJ6′ in pHZ-1 vector).
# The cells were cultured at 5% CO2 in DMEM medium with 10% FBS, 1× GlutaMAX, 1 mg/mL G418, 240 nM MTX (methotrexate) and 1% pen/strep (penicillin/streptomycin). They were aliquoted and stored in liquid nitrogen. Before each assay, an aliquot was taken up and washed three times in PBS before being suspended at the desired concentration in assay buffer. For 96-well plates the suspension was made to give a final concentration of 5×10 EE3 cells/well.
# Assay Medium consisted of DMEM w/o phenol red, 10 mM Hepes, lx GlutaMAX, 2% Ovalbumin and 0.2% Pluronic F-68.
# Cell stocks were thawed in a 37° C. water bath. Cells were washed three times in PBS. The cells were counted and adjusted to 5×10 EE3 cells/50 μl (1×10 EE5 cells/mL) in Assay Medium. A 50 μl aliquot of cells was transferred to each well in the assay plate.
# Stocks of the test compounds and reference compounds were diluted to a concentration of […] in Assay Medium. Compounds were diluted 10-fold to give the following concentrations: […], 2×10 EE-7 M, 2×10 EE-8 M; 2×10 EE-9 M, 2×10 EE-10 M, 2×10 EE-11 M, 2×10 EE-12 M and 2×10 EE-13 M. For each compound a blank assay buffer control was also included.
# A 50 μl aliquot of compound or blank was transferred from the dilution plate to the assay plate. Compounds were tested at the following final concentrations: 1×10 EE-6 M, 1×10 EE-7 M, 1×10 EE-8 M; 1×10 EE-9 M, 1×10 EE-10 M, 1×10 EE-11 M and 1×10 EE-12 M and 1×10 EE-13 M.
# The assay plate was incubated for 3 h in a 5% CO2 incubator at 37° C. The assay plate was removed from the incubator and allowed to stand at room temperature for 15 min. A 100 μl aliquot of steadylite plus reagent was added to each well of the assay plate (reagent is light sensitive). Each assay plate was covered with aluminum foil to protect it from light and shaken for 30 min at room temperature. Each assay plate was read in a Packard TopCount NXT instrument.
# The data from the TopCount instrument was transferred to GraphPad Prism software. The software performed a non-linear regression (log(agonist) vs response-Variable slope (four parameter)). EC50 values were calculated by the software and reported in pM.
# physchem = format: physicochemical; details: pH 7.5
# In short: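 Peptide at 250 μM in 10 mM HEPES pH 7.5 with 1 μM Thioflavin T, incubated at 37° C with 960 rpm orbital shaking. ThT fluorescence (ex 444/em 485 nm) read every 20 min; lag-time (t0−2τ) and kapp (1/τ) from curve fit. Recovery is post-assay supernatant peptide by RP-HPLC as % of initial.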
Structure (SMILES),EC50 (human glucagon receptor) [pM],recovery at 250 μM (physchem) [%]
"CC(=O)N[C@@H](CCC(=O)N[C@@H](CCC(=O)N[C@@H](CCC(=O)N[C@@H](CCC(=O)NCCCC[C@H](NC(=O)[C@@H](NC(=O)[C@H](CO)NC(=O)[C@H](CC(C)C)NC(=O)[C@H](CC(C)C)NC(=O)[C@H](Cc1c[nH]c2ccccc12)NC(=O)[C@H](CCC(N)=O)NC(=O)[C@@H](NC(=O)[C@H](Cc1ccccc1)NC(=O)[C@H](CCC(=O)O)NC(=O)[C@H](CCC(N)=O)NC(=O)[C@H](C)NC(=O)[C@H](CCCNC(=N)N)NC(=O)[C@H](CCCNC(=N)N)NC(=O)[C@H](CO)NC(=O)[C@H](CCC(=O)O)NC(=O)[C@H](CC(C)C)NC(=O)[C@H](Cc1ccc(O)cc1)NC(=O)[C@H](CCCCN)NC(=O)[C@H](CO)NC(=O)[C@H](Cc1ccc(O)cc1)NC(=O)[C@H](CC(=O)O)NC(=O)[C@H](CO)NC(=O)[C@@H](NC(=O)[C@H](Cc1ccccc1)NC(=O)[C@@H](NC(=O)CNC(=O)[C@H](Cc1c[nH]cn1)NC(=O)[C@H](CO)NC(=O)CCc1c[nH]cn1)[C@@H](C)O)[C@@H](C)O)C(C)C)[C@@H](C)O)C(=O)O)C(=O)O)C(=O)O)C(=O)O)C(=O)O [Example 16, N^α([Imp1, His3, Glu15, Glu21, Leu27, Ser28]-Glucagonyl)-N{Epsilon}[(4S)-4-[[(4S)-4-[[(4S)-4-[[(4S)-4-acetamido-4-carboxybutanoyl]amino]-4-carboxybutanoyl]amino]-4-carboxybutanoyl]amino]-4-carboxybutanoyl]Lys] (Desaminohistidyl-SHGTFTSDYSKYLESRRAQEFVQWLLSTK([γGlu-γGlu-γGlu-γGlu-Ac])-OH)",4,61
"CC(=O)N[C@@H](CCC(=O)N[C@@H](CCC(=O)N[C@@H](CCC(=O)NCCCC[C@H](NC(=O)[C@@H](NC(=O)[C@H](Cc1ccccc1)NC(=O)[C@H](CCC(=O)O)NC(=O)[C@H](CCC(N)=O)NC(=O)[C@H](C)NC(=O)[C@H](CCCNC(=N)N)NC(=O)[C@H](CCCNC(=N)N)NC(=O)[C@H](CO)NC(=O)[C@H](CCC(=O)O)NC(=O)[C@H](CC(C)C)NC(=O)[C@H](Cc1ccc(O)cc1)NC(=O)[C@H](CCCCN)NC(=O)[C@H](CO)NC(=O)[C@H](Cc1ccc(O)cc1)NC(=O)[C@H](CC(=O)O)NC(=O)[C@H](CO)NC(=O)[C@@H](NC(=O)[C@H](Cc1ccccc1)NC(=O)[C@@H](NC(=O)CNC(=O)[C@H](Cc1c[nH]cn1)NC(=O)[C@H](CO)NC(=O)CCc1c[nH]cn1)[C@@H](C)O)[C@@H](C)O)C(C)C)C(=O)N[C@@H](Cc1c[nH]c2ccccc12)C(=O)N[C@@H](CC(C)C)C(=O)N[C@@H](CC(C)C)C(=O)N[C@@H](CO)C(=O)N[C@H](C(=O)O)[C@@H](C)O)C(=O)O)C(=O)O)C(=O)O [Example 18, N^ϵ24-[(4S)-4-[[(4S)-4-[[(4S)-4-acetamido-4-carboxybutanoyl]amino]-4-carboxybutanoyl]amino]-4-carboxybutanoyl]-[Imp1, His3, Glu15, Glu21, Lys24, Leu27, Ser28]-Glucagon] (Desaminohistidyl-SHGTFTSDYSKYLESRRAQEFVK([γGlu-γGlu-γGlu-Ac])WLLST-OH)",6,100
"CC(=O)N[C@@H](CCC(=O)N[C@@H](CCC(=O)N[C@@H](CCC(=O)N[C@@H](CCC(=O)N[C@@H](CCC(=O)NCCCC[C@H](NC(=O)[C@@H](NC(=O)[C@H](Cc1ccccc1)NC(=O)[C@H](CCC(=O)O)NC(=O)[C@H](CCC(N)=O)NC(=O)[C@H](C)NC(=O)[C@H](CCCNC(=N)N)NC(=O)[C@H](CCCNC(=N)N)NC(=O)[C@H](CO)NC(=O)[C@H](CCC(=O)O)NC(=O)[C@H](CC(C)C)NC(=O)[C@H](Cc1ccc(O)cc1)NC(=O)[C@H](CCCCN)NC(=O)[C@H](CO)NC(=O)[C@H](Cc1ccc(O)cc1)NC(=O)[C@H](CC(=O)O)NC(=O)[C@H](CO)NC(=O)[C@@H](NC(=O)[C@H](Cc1ccccc1)NC(=O)[C@@H](NC(=O)CNC(=O)[C@H](Cc1c[nH]cn1)NC(=O)[C@H](CO)NC(=O)CCc1c[nH]cn1)[C@@H](C)O)[C@@H](C)O)C(C)C)C(=O)N[C@@H](Cc1c[nH]c2ccccc12)C(=O)N[C@@H](CC(C)C)C(=O)N[C@@H](CC(C)C)C(=O)N[C@@H](CO)C(=O)N[C@H](C(=O)O)[C@@H](C)O)C(=O)O)C(=O)O)C(=O)O)C(=O)O)C(=O)O [Example 19, N^ϵ24-[(4S)-4-[[(4S)-4-[[(4S)-4-[[(4S)-4-[[(4S)-4-acetamido-4-carboxybutanoyl]amino]-4-carboxybutanoyl]amino]-4-carboxybutanoyl]amino]-4-carboxybutanoyl]amino]-4-carboxybutanoyl]-[Imp1, His3, Glu15, Glu21, Lys24, Leu27, Ser28]-Glucagon] (Desaminohistidyl-SHGTFTSDYSKYLESRRAQEFVK([γGlu-γGlu-γGlu-γGlu-γGlu-Ac])WLLST-OH)",6,104
"CC(=O)N[C@@H](CCC(=O)N[C@@H](CCC(=O)N[C@@H](CCC(=O)N[C@@H](CCC(=O)NCCCC[C@H](NC(=O)[C@@H](NC(=O)[C@H](Cc1ccccc1)NC(=O)[C@H](CC(=O)O)NC(=O)[C@H](CCC(N)=O)NC(=O)[C@H](C)NC(=O)[C@H](CCCNC(=N)N)NC(=O)[C@H](CCCNC(=N)N)NC(=O)[C@H](C)NC(=O)[C@H](CC(=O)O)NC(=O)[C@H](CC(C)C)NC(=O)[C@H](Cc1ccc(O)cc1)NC(=O)[C@H](CCCCN)NC(=O)[C@H](CO)NC(=O)[C@H](Cc1ccc(O)cc1)NC(=O)[C@H](CC(=O)O)NC(=O)[C@H](CO)NC(=O)[C@@H](NC(=O)[C@H](Cc1ccccc1)NC(=O)[C@@H](NC(=O)CNC(=O)[C@H](Cc1c[nH]cn1)NC(=O)[C@H](CO)NC(=O)CCc1c[nH]cn1)[C@@H](C)O)[C@@H](C)O)C(C)C)C(=O)N[C@@H](Cc1c[nH]c2ccccc12)C(=O)N[C@@H](CC(C)C)C(=O)N[C@@H](CC(C)C)C(=O)N[C@@H](CO)C(=O)N[C@H](C(=O)O)[C@@H](C)O)C(=O)O)C(=O)O)C(=O)O)C(=O)O [Example 20, N^ϵ24-[(4S)-4-[[(4S)-4-[[(4S)-4-[[(4S)-4-acetamido-4-carboxybutanoyl]amino]-4-carboxybutanoyl]amino]-4-carboxybutanoyl]amino]-4-carboxybutanoyl]-[Imp1, His3, Ala16, Lys24, Leu27, Ser28]-Glucagon] (Desaminohistidyl-SHGTFTSDYSKYLDARRAQDFVK([γGlu-γGlu-γGlu-γGlu-Ac])WLLST-OH)",4,105
"CC(=O)N[C@@H](CCC(=O)N[C@@H](CCC(=O)N[C@@H](CCC(=O)N[C@@H](CCC(=O)NCCCC[C@H](NC(=O)[C@@H](NC(=O)[C@H](Cc1ccccc1)NC(=O)[C@H](CC(=O)O)NC(=O)[C@H](CCC(N)=O)NC(=O)[C@H](C)NC(=O)[C@H](CCCNC(=N)N)NC(=O)[C@H](CCCNC(=N)N)NC(=O)C(C)(C)NC(=O)[C@H](CC(=O)O)NC(=O)[C@H](CC(C)C)NC(=O)[C@H](Cc1ccc(O)cc1)NC(=O)[C@H](CCCCN)NC(=O)[C@H](CO)NC(=O)[C@H](Cc1ccc(O)cc1)NC(=O)[C@H](CC(=O)O)NC(=O)[C@H](CO)NC(=O)[C@@H](NC(=O)[C@H](Cc1ccccc1)NC(=O)[C@@H](NC(=O)CNC(=O)[C@H](Cc1c[nH]cn1)NC(=O)[C@H](CO)NC(=O)CCc1c[nH]cn1)[C@@H](C)O)[C@@H](C)O)C(C)C)C(=O)N[C@@H](Cc1c[nH]c2ccccc12)C(=O)N[C@@H](CC(C)C)C(=O)N[C@@H](CC(C)C)C(=O)N[C@@H](CO)C(=O)N[C@H](C(=O)O)[C@@H](C)O)C(=O)O)C(=O)O)C(=O)O)C(=O)O [Example 21, N^ϵ24-[(4S)-4-[[(4S)-4-[[(4S)-4-[[(4S)-4-acetamido-4-carboxybutanoyl]amino]-4-carboxybutanoyl]amino]-4-carboxybutanoyl]amino]-4-carboxybutanoyl]-[Imp1, His3, Aib16, Lys24, Leu27, Ser28]-Glucagon] (Desaminohistidyl-SHGTFTSDYSKYLD[Aib]RRAQDFVK([γGlu-γGlu-γGlu-γGlu-Ac])WLLST-OH)",2,104
